Source: PMC5454592, “Pharmacological and Toxicological Properties of the Potent Oral γ-Secretase Modulator BPN-15606” (The Journal of Pharmacology and Experimental Therapeutics, 2017)

Assays:
[1] = parameters: method as in Soares et al., 2016; Toyn et al., 2016; details: ref Soares et al., 2016, Toyn et al.; cited from earlier work
[2] = system: Notch proteolysis by γ-secretase; assay: Notch assay (Myc-tagged Notch NΔE in H4-APP751 neuroglioma cells); type: cell-based; details: H4-APP751 neuroglioma cells transfected with Myc-tagged Notch (NΔE) construct; Fig. 3
Procedure: Notch assays were carried out as described previously ([Wagner et al., 2014]).

For `CNc1nc(Nc2ccc(-n3cnc(C)n3)c(OC)c2)nc2c1CC[C@H]2c1ccc(F)cc1` [BMS-932481], the “hepatic safety in repeated oral dosing studies in humans” value [1] is listed as “transient elevations in plasma concentrations of enzymes associated with hepatic toxicity”.
For `C[C@H](NC(=O)Cc1cc(F)cc(F)c1)C(=O)N[C@H](C(=O)OC(C)(C)C)c1ccccc1` [N-[N-(3,5-difluorophenacetyl)-L-alanyl]-S-phenylglycine t-butyl ester, reference compound], the Notch proteolysis [2] was “potently inhibits Notch proteolysis”.
